# Values joined by “and” are separate entries in the source; they are usually repeats but may differ in a detail not shown here. Identical values can stand only once.
# Legend:
# Assay in all cases: ≥ marks a high value that may be exact or a test limit, other limits are often not marked, values filed in µg/mL are converted to µM
# [1] = tested on: Salmonella enterica subsp. enterica serovar Typhimurium C77-31
# [2] = tested on: Pseudomonas aeruginosa ATCC 27853
# Escherichia coli UB1005 = tested on: Escherichia coli UB1005
# [3] = tested on: Staphylococcus aureus ATCC 25923
# [4] = tested on: Salmonella enterica subsp. enterica serovar Pullorum ATCC 7913
# [5] = tested on: Candida tropicalis CGMCC 2.1975
# [6] = tested on: Staphylococcus epidermidis ATCC 12228
# [7] = tested on: Candida parapsilosis CGMCC 2.3989
# Escherichia coli K99 = tested on: Escherichia coli K99
# [8] = tested on: Salmonella enterica subsp. enterica serovar Typhimurium ATCC 14028
# [9] = tested on: Staphylococcus aureus ATCC 43300
# Escherichia coli 078 = tested on: Escherichia coli 078
# Escherichia coli K88 = tested on: Escherichia coli K88
# [10] = tested on: Legionella pneumophila Lens
# [11] = tested on: Bacillus subtilis VKM B-501
# Escherichia coli C600 = tested on: Escherichia coli C600
# [12] = tested on: Staphylococcus aureus 209P
# [13] = tested on: Escherichia coli NCTC 10418
# [14] = tested on: Staphylococcus aureus NCTC 12493
# [15] = tested on: Staphylococcus aureus NCTC 10788
# [16] = tested on: Enterococcus faecalis NCTC 12697
# [17] = tested on: Candida albicans NCYC 1467
# [18] = tested on: Klebsiella pneumoniae ATCC 43816
# Escherichia coli UTI89 = tested on: Escherichia coli UTI89
# [19] = tested on: Escherichia coli K12 MG1655
# [20] = tested on: Staphylococcus epidermidis
# [21] = tested on: Staphylococcus aureus ATCC 6538
# [22] = tested on: Escherichia coli CCT 1371
# [23] = tested on: Escherichia coli ATCC 25922
# [24] = tested on: Bacillus subtilis CCT 2471
# [25] = tested on: Staphylococcus saprophyticus
# [26] = tested on: Enterobacter cloacae ATCC 23355
# [27] = tested on: Pseudomonas aeruginosa ATCC 15442
# [28] = tested on: Acinetobacter baumannii CR17
# [29] = tested on: Lacticaseibacillus rhamnosus 1.0911
# [30] = tested on: Salmonella enterica subsp. enterica serovar Pullorum C79-13
# [31] = tested on: Salmonella enterica subsp. enterica serovar Choleraesuis CVCC 503
# [32] = tested on: Pseudomonas aeruginosa PAO1
# [33] = tested on: Streptococcus agalactiae BNCC 185941
# [34] = tested on: Lacticaseibacillus rhamnosus 1.9021
# [35] = tested on: Escherichia coli O157:H7 CICC 21530
# [36] = tested on: Lacticaseibacillus rhamnosus 1.0936
# [37] = tested on: Staphylococcus aureus ATCC 29213
# [38] = tested on: Lacticaseibacillus rhamnosus 8014
smiles,measurement,setting,value
CC[C@H](C)[C@H](NC(=O)[C@H](Cc1c[nH]c2ccccc12)NC(=O)[C@H](CCCN=C(N)N)NC(=O)[C@H](CC(C)C)NC(=O)[C@@H](NC(=O)[C@H](CCCN=C(N)N)NC(=O)[C@H](CCCN=C(N)N)NC(=O)[C@H](C)NC(=O)[C@H](C)N)[C@@H](C)CC)C(=O)N[C@@H](Cc1ccccc1)C(=O)N[C@@H](CCCN=C(N)N)C(N)=O [AARRILRWIFR],MIC,[1],4 µM
same,MIC,[2],8 µM
same,MIC,Escherichia coli UB1005,4 µM
same,MIC,[3],8 µM
same,MIC,[4],4 µM
same,MIC,[5],4 µM
same,MIC,[6],4 µM
same,MIC,[7],8 µM
same,MIC,Escherichia coli K99,4 µM
same,MIC,[8],4 µM
same,MIC,[9],8 µM
same,MIC,Escherichia coli 078,4 µM
same,MIC,Escherichia coli K88,4 µM
CC[C@H](C)[C@H](NC(=O)[C@H](Cc1ccccc1)NC(=O)[C@H](CC(=O)O)NC(=O)[C@H](C)NC(=O)[C@@H](N)CCSC)C(=O)N[C@@H](C)C(=O)N[C@@H](CCCCN)C(=O)N[C@H](C(=O)N[C@H](C(=O)N[C@@H](CCC(=O)O)C(=O)N[C@H](C(=O)N[C@H](C(=O)N[C@@H](CCCCN)C(=O)NCC(=O)N[C@@H](CC(C)C)C(=O)N[C@H](C(=O)N[C@@H](CC(=O)O)C(=O)N[C@@H](CCC(N)=O)C(=O)N[C@@H](Cc1ccccc1)C(=O)N[C@H](C(=O)N[C@@H](CCC(N)=O)C(=O)N[C@@H](CCCCN)C(=O)O)[C@@H](C)O)[C@@H](C)CC)C(C)C)[C@@H](C)CC)C(C)C)[C@@H](C)CC [MADFIAKIVEIVKGLIDQFTQK],MIC,[10],1.25 µM
CC[C@H](C)[C@H](NC(=O)[C@H](C)NC(=O)[C@H](CCCCN)NC(=O)[C@H](CCCN=C(N)N)NC(=O)[C@H](CC(C)C)NC(=O)[C@H](Cc1ccccc1)NC(=O)[C@H](CCCCN)NC(=O)[C@H](CCCCN)NC(=O)[C@@H](NC(=O)[C@H](CC(C)C)NC(=O)[C@H](CCCCN)NC(=O)CNC(=O)[C@H](Cc1ccccc1)NC(=O)[C@H](CC(C)C)NC(=O)CN)[C@@H](C)CC)C(=O)N[C@@H](CO)C(=O)N[C@@H](Cc1ccc(O)cc1)C(=O)N[C@@H](C)C(=O)N[C@H](C(=O)N[C@@H](CCCCN)C(=O)N[C@@H](CCCCN)C(=O)N[C@@H](C)C(=O)N[C@@H](CCCN=C(N)N)C(=O)NCC(=O)N[C@@H](CCCCN)C(=O)N[C@@H](Cc1cnc[nH]1)C(=O)O)C(C)C [GLFGKLIKKFLRKAISYAVKKARGKH],MIC,[11],0.7 µM
same,MIC,Escherichia coli C600,3 µM
same,MIC,[12],1.5 µM
CC[C@H](C)[C@H](NC(=O)[C@H](C)NC(=O)[C@H](CCCCN)NC(=O)[C@@H]1CCCN1C(=O)[C@@H](NC(=O)[C@H](CC(C)C)NC(=O)[C@H](CO)NC(=O)[C@H](CC(C)C)NC(=O)[C@@H](N)Cc1ccccc1)[C@@H](C)CC)C(=O)N[C@@H](CO)C(=O)N[C@@H](C)C(=O)N[C@H](C(=O)N[C@@H](CO)C(=O)N[C@@H](C)C(=O)N[C@@H](CC(C)C)C(=O)N[C@@H](C)C(=O)N[C@@H](CC(N)=O)C(=O)N[C@@H](Cc1cnc[nH]1)C(=O)N[C@@H](Cc1ccccc1)C(N)=O)C(C)C [FLSLIPKAISAVSALANHF],MIC,[13],≥ 128 µM
same,MIC,[2],> 512 µM
same,MIC,[14],16 µM
same,MIC,[15],8 µM
same,MIC,[16],≥ 32 µM
same,MIC,[17],16 µM
same,MIC,[18],≥ 256 µM
CC[C@H](C)[C@H](NC(=O)[C@H](CCCCN)NC(=O)[C@H](CCC(N)=O)NC(=O)[C@H](Cc1c[nH]c2ccccc12)NC(=O)[C@@H](NC(=O)[C@H](CCCN=C(N)N)NC(=O)[C@@H](N)CCCCN)[C@@H](C)CC)C(=O)N[C@@H](CCCCN)C(=O)N[C@@H](CC(N)=O)C(=O)N[C@@H](Cc1ccccc1)C(=O)N[C@@H](Cc1ccccc1)C(=O)N[C@@H](CCC(N)=O)C(=O)N[C@@H](CCCCN)C(=O)N[C@@H](CC(C)C)C(=O)O [KRIWQKIKNFFQKL],MIC,Escherichia coli UTI89,6.25 µM
same,MIC,[19],6.25 µM
same,MIC,[20],25 µM
same,MIC,[8],25 µM
CC[C@H](C)[C@H](NC(=O)[C@H](C)NC(=O)CNC(=O)[C@H](CC(C)C)NC(=O)[C@@H](NC(=O)[C@H](CCCCN)NC(=O)[C@H](CCCCN)NC(=O)[C@@H](NC(=O)[C@@H](NC(=O)CNC(=O)[C@H](CC(C)C)NC(=O)[C@H](CC(C)C)NC(=O)[C@H](CCCCN)NC(=O)[C@@H](N)CC(C)C)[C@@H](C)CC)C(C)C)C(C)C)C(N)=O [LKLLGIVKKVLGAI],MIC,[21],17 µM
same,MIC,[3],3 µM
same,MIC,[22],≥ 34 µM
same,MIC,[23],3 µM
same,MIC,[24],≥ 68 µM
same,MIC,[25],3 µM
same,MIC,[20],≥ 34 µM
same,MIC,[26],≥ 34 µM
same,MIC,[27],≥ 34 µM
CC[C@H](C)[C@H](NC(=O)[C@H](CC(N)=O)NC(=O)[C@H](CC(C)C)NC(=O)[C@H](CCCCN)NC(=O)[C@H](C)NC(=O)[C@H](CC(C)C)NC(=O)[C@H](C)NC(=O)[C@H](C)NC(=O)[C@H](CC(C)C)NC(=O)[C@H](C)NC(=O)[C@H](CCCCN)NC(=O)[C@H](CCCCN)NC(=O)[C@@H](NC(=O)[C@@H](N)CC(C)C)[C@@H](C)CC)C(N)=O [LIKKALAALAKLNI],MIC,[28],≥ 173 µM
CC[C@H](C)[C@H](NC(=O)CNC(=O)[C@@H](NC(=O)[C@H](Cc1c[nH]c2ccccc12)NC(=O)[C@@H](NC(=O)CNC(=O)[C@@H](NC(=O)[C@H](CCCCN)NC(=O)[C@@H](N)CCCCN)[C@@H](C)CC)[C@@H](C)CC)[C@@H](C)CC)C(=O)N[C@@H](CCCCN)C(=O)N[C@@H](CCCCN)C(N)=O [KKIGIWIGIKK],MIC,[29],16 µM
same,MIC,[2],4 µM
same,MIC,[30],8 µM
same,MIC,[31],8 µM
same,MIC,[32],16 µM
same,MIC,[33],≥ 128 µM
same,MIC,[34],≥ 32 µM
same,MIC,[23],8 µM and 16 µM
same,MIC,[35],4 µM
same,MIC,[36],≥ 64 µM
same,MIC,[6],64 µM
same,MIC,[37],16 µM
same,MIC,[8],16 µM
same,MIC,[9],16 µM
same,MIC,Escherichia coli K88,2 µM
same,MIC,[38],16 µM

# — DBAASP
